Data as given in patent US8293786B2 (Alltranz Inc., priority 2007, dated 2012).

Columns and labels:
[1] = Plasma stability of cannabidiol prodrugs (bioconversion to parent drug); type: in vitro ADME; conditions: Table 20, di-prodrug in plasma; for % mono-prodrug at time (h): mono-prodrug formed
Protocol: An approximated 1 mg/mL stock solution of each prodrug was prepared in 100 μL of ethanol and 900 μL of acetonitrile. Ten (10) μL of stock was spiked into 1 mL of plasma and vortexed. The samples were kept sealed in an amber vial and samples were obtained to analyze for bioconversion to parent drug.

human abdominal skin = test: In vitro human skin permeation and skin disposition, flow-through diffusion cells (Example 1); type: in vitro ADME
Protocol: Flow through diffusion cells were used for the permeation studies. HEPES-buffered Hanks' balanced salts containing 40% (polyethylene glycol) PEG 400 with gentamicin was used for the receiver compartment. Donor solution was comprised of either 100% propylene glycol (PG) solution or a rubbed in gel formulation. […] Drug accumulation in the skin after a 24 or 36 h diffusion experiment was determined as μmol/g wet tissue weight.
The skin samples used in the following experiments were obtained from abdominal reduction surgery and dermatomed to a thickness of approximately 200 μm. The skin samples used herein were frozen at −20° C. for less than six months.
1 L of receiver fluid was prepared by measuring 1 L of nanopure water into a graduated cylinder. 90% of the water was added to an Erlenmeyer flask. Hanks' salts (1 bottle) were added to the water along with 5.96 g of HEPES and 0.35 g of sodium bicarbonate. The pH of the solution was adjusted with 1 N sodium hydroxide solution to pH 7.4. The remaining water was added and the receiver fluid was filtered through a 0.2μ filter (Millipore, Billerica, Mass.). 50 mg of gentamicin was added to the filtered receiver fluid and 400 mL of the receiver fluid was removed and replaced with 400 mL of PEG 400.
Two different formulations were used for charging the donor compartment. Drugs were made up in either 100% PG or a gel formulation. For the PG solution, approximately 50-120 mg of the appropriate drug was weighed into a glass silanized culture tube. The gel formulation resulted from the mixing of absolute ethanol, nanopure water, IPM, Carbopol® 980, 0.1 N aqueous sodium hydroxide solution and the respective drug.
Dermatomed skin harvested from abdominoplasty, stored at −20° C., was used for the experiments. A PermeGear flow-through (In-Line, Riegelsville, Pa.) diffusion cell system was used for the skin permeation studies.
Diffusion cells were kept at 32° C. with a circulating water bath. Human epidermal skin was arranged in the diffusion cell with stratum corneum (upper layer of skin) facing the donor compartment. Permeation area of the skin was 0.95 cm^2. Data was collected from a human skin donor with three to four diffusion cells per treatment.
Receiver solution was HEPES-buffered Hanks' balanced salts with gentamicin containing 40% PEG 400 at a pH of 7.4 and flow rate was adjusted to 0.8 mL/h. Each cell was charged with 0.050 mL of the respective drug formulation (donor solution) or with 0.035 mL of gel formulation which was rubbed into the skin for 15 sec with a Teflon coated rod. The formulation was applied to ensure complete coverage. Diffusion cells were covered with a cap for the duration of the study.
Samples were collected into scintillation vials in 3 h increments for either 24 h or 36 h. All the samples were stored at 4° C. until extracted. An aliquot (0.5 mL) of the diffusion sample was placed into a silanized HPLC vial and 0.5 mL of acetonitrile was added to the sample, capped and vortexed.
At the end of the experiment, the skin tissue was removed from the diffusion cell, rinsed with nanopure water, and blotted dry with a paper towel. The skin was tape stripped twice using book tape (Scotch™, 3M, St. Paul, Minn.) to remove drug formulation adhering to the tissue surface. The area of skin in contact with the drug was cut out, chopped up and placed in a pre-weighed scintillation vial. Ten mL of acetonitrile was added to the vial and drug was extracted from the skin by shaking at room temperature overnight. The following day a 0.1 mL aliquot was removed and diluted with an additional 0.9 mL of acetonitrile. The diluted sample was added to the silanized HPLC vial for analysis.
At the end of the experiment, a 0.01 mL aliquot of the PG donor solution was removed and added to a scintillation vial containing 10 mL of acetonitrile. The vials were vortexed and then sonicated for 15 min. An aliquot of 1 mL was removed and transferred into a silanized HPLC vial for analysis.

[2] = Table 3, in propylene glycol, prodrug applied
[3] = Table 3, in propylene glycol, CBD high conc.
[4] = Table 3, in propylene glycol, CBD low conc.
[5] = Table 4, in propylene glycol, CBD high conc.
[6] = Table 4, in propylene glycol, CBD low conc.
[7] = Table 5, in propylene glycol, CBD high conc.
[8] = Table 5, in propylene glycol, CBD low conc.
[9] = Table 11, in gel formulation, as applied compound (CBD or intact prodrug)
[10] = Table 12, in gel formulation, as applied compound (CBD or intact prodrug)
[11] = Table 13, in propylene glycol, as applied compound (CBD or intact prodrug)
[12] = Table 14, in propylene glycol, as applied compound (CBD or intact prodrug)

C=C(C)[C@@H]1CCC(C)=C[C@H]1c1c(OC(=O)CCN(C)C)cc(CCCCC)cc1OC(=O)CCN(C)C [ALL00101, CBD bis(3-(dimethylamino)propionate)]
% mono-prodrug at time (h) ([1]; 1 h): 22% | % mono-prodrug at time (h) ([1]; 20 h): 11% | % Di-prodrug at time (h) ([1]; 0 h): 100% | % Di-prodrug at time (h) ([1]; 1 h): 75% | % Di-prodrug at time (h) ([1]; 20 h): 1% | flux enhancement (in words) (human abdominal skin; Example 1): No flux enhancement | form in which the prodrug permeated through the human skin (human abdominal skin; Example 1): permeated through the human skin as cannabidiol | found in the skin disposition (tissue) samples (human abdominal skin; Example 1): Both cannabidiol and intact prodrug were found | intact prodrug in the diffusion samples (receiver samples) (human abdominal skin; Example 1): No intact prodrug was found | total cannabidiol in the skin compared to cannabidiol (human abdominal skin; Example 1): higher | 24 h cumulative amt (human abdominal skin; [2]): 11.0 ± 0.1 nmol | Flux (human abdominal skin; [2]): 1.0 ± 0.4 nmol/cm^2/h | Lag time (human abdominal skin; [2]): 11.7 ± 5.1 h | 24 h skin conc (human abdominal skin; Table 3, in propylene glycol, prodrug applied, found in skin as CBD): 17.4 ± 4.3 (CBD) μmol/g | 24 h skin conc (human abdominal skin; Table 3, in propylene glycol, prodrug applied, found in skin as PD (prodrug)): 29.2 ± 7.6 (PD) μmol/g

C=C(C)[C@@H]1CCC(C)=C[C@H]1c1c(O)cc(CCCCC)cc1O [cannabidiol, reference compound]
24 h cumulative amt (human abdominal skin; Table 2, in propylene glycol): 222.7 ± 74.0 nmol | 24 h skin conc (human abdominal skin; Table 2, in propylene glycol): 190.8 ± 10.7 µmol/g | Flux (human abdominal skin; Table 2, in propylene glycol): 10.4 ± 2.0 nmol/cm^2/h | 24 h cumulative amt (human abdominal skin; [3]): 89.2 ± 15.0 nmol | 24 h skin conc (human abdominal skin; [3]): 223.1 ± 75.3 µmol/g | Flux (human abdominal skin; [3]): 7.8 ± 1.1 nmol/cm^2/h | 24 h cumulative amt (human abdominal skin; [4]): 50.1 ± 28.1 nmol | 24 h skin conc (human abdominal skin; [4]): 26.3 ± 14.1 µmol/g | Flux (human abdominal skin; [4]): 4.5 ± 2.5 nmol/cm^2/h | 24 h cumulative amt (human abdominal skin; [5]): 110.4 ± 18.9 nmol | 24 h skin conc (human abdominal skin; [5]): 167.6 ± 76.7 µmol/g | Flux (human abdominal skin; [5]): 8.5 ± 2.4 nmol/cm^2/h | 24 h cumulative amt (human abdominal skin; [6]): 63.5 ± 47.5 nmol | 24 h skin conc (human abdominal skin; [6]): 112.5 ± 61.8 µmol/g | Flux (human abdominal skin; [6]): 6.0 ± 3.3 nmol/cm^2/h | 24 h cumulative amt (human abdominal skin; [7]): 42.4 ± 10.7 nmol | 24 h skin conc (human abdominal skin; [7]): 104.9 ± 51.0 µmol/g | Flux (human abdominal skin; [7]): 3.9 ± 0.0 nmol/cm^2/h | 24 h cumulative amt (human abdominal skin; [8]): 56.9 ± 39.4 nmol | 24 h skin conc (human abdominal skin; [8]): 75.3 ± 33.1 µmol/g | Flux (human abdominal skin; [8]): 5.7 ± 3.5 nmol/cm^2/h | 24 h cumulative amt (human abdominal skin; Table 6, in propylene glycol): 27.5 ± 32.5 nmol | 24 h skin conc (human abdominal skin; Table 6, in propylene glycol): 49.2 ± 15.2 µmol/g | Flux (human abdominal skin; Table 6, in propylene glycol): 4.3 ± 2.4 nmol/cm^2/h | 36 h cumulative amt (human abdominal skin; Table 7, in propylene glycol): 15.7 ± 5.4 nmol | 36 h skin conc. (human abdominal skin; Table 7, in propylene glycol): 44.1 ± 15.5 µmol/g | Flux (human abdominal skin; Table 7, in propylene glycol, 36 h experiment): 1.0 ± 0.7 nmol/cm^2/h | 36 h cumulative amt (human abdominal skin; Table 8, in gel formulation): 52.0 ± 42.7 nmol | 36 h skin conc. (human abdominal skin; Table 8, in gel formulation): 28.4 ± 8.8 µmol/g | Flux (human abdominal skin; Table 8, in gel formulation, 36 h experiment): 2.0 ± 2.3 nmol/cm^2/h | 24 h cumulative amt (human abdominal skin; Table 9, in gel formulation): 1.9 ± 1.3 nmol | Flux (human abdominal skin; Table 9, in gel formulation): 0.10 ± 0.06 nmol/cm^2/h | 24 h skin conc (human abdominal skin; Table 9, in gel formulation, as applied compound (CBD, or PD = intact prodrug)): 24.6 ± 3.6 µmol/g | 24 h cumulative amt (human abdominal skin; Table 10, in propylene glycol): 164.5 ± 34.1 nmol | Flux (human abdominal skin; Table 10, in propylene glycol): 8.0 ± 0.9 nmol/cm^2/h | 24 h skin conc (human abdominal skin; Table 10, in propylene glycol, as applied compound (CBD, or PD = intact prodrug)): 85.8 ± 24.3 µmol/g | 24 h cumulative amt (human abdominal skin; [9]): 13.3 ± 2.6 nmol | 24 h skin conc (human abdominal skin; [9]): 29.0 ± 10.2 µmol/g | Flux (human abdominal skin; [9]): 1.0 ± 0.1 nmol/cm^2/h | 24 h cumulative amt (human abdominal skin; [10]): 2.9 ± 0.1 nmol | 24 h skin conc (human abdominal skin; [10]): 88.4 ± 36.3 µmol/g | Flux (human abdominal skin; [10]): 0.24 ± 0.003 nmol/cm^2/h | Flux (human abdominal skin; Table 13, in propylene glycol, 36 h, as applied compound (CBD or intact prodrug)): 4.2 ± 0.0 nmol/cm^2/h | 36 h cumulative amt (human abdominal skin; [11]): 94.5 ± 0.0 nmol | 36 h skin conc. (human abdominal skin; [11]): 39.4 ± 0.0 µmol/g | Flux (human abdominal skin; Table 14, in propylene glycol, 36 h, as applied compound (CBD or intact prodrug)): 8.4 ± 2.4 nmol/cm^2/h | 36 h cumulative amt (human abdominal skin; [12]): 93.6 ± 38.0 nmol | 36 h skin conc. (human abdominal skin; [12]): 92.9 ± 4.8 µmol/g
